What was measured:
Conditions in all cases: incubation time: 72 h
BT-474 [1] = test: drug sensitivity score (DSS), CellTiter-Glo (DSS (AUC-based score)); higher = stronger drug effect (viability inhibition or cytotoxicity); extreme values may be limits of the assay
Outline: (§1)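 Breast cancer cell lines were seeded in 20 µl suspension into 384-well plates already holding compound and incubated for 72 h. Each compound was tested at 5 concentrations in 10-fold steps across its own 10,000-fold range. Plates were normalised to 0.1 % DMSO and a positive kill control after CellTox Green and then CellTiter-Glo readings. The area under the fitted dose-response curve served as the basis for the drug sensitivity score.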

CAL-148 [2] = test: as above
Outline: as §1

Hs578T [3] = test: as above
Outline: as §1

CAL-51 [4] = test: as above
Outline: as §1

HCC1143 = test: as above
Outline: as §1

HCC1937 = test: as above
Outline: as §1

MCF-10A = test: as above
Outline: as §1

MFM-223 [5] = test: as above
Outline: as §1

CAL-85-1 [6] = test: as above
Outline: as §1

CAL-120 [7] = test: as above
Outline: as §1

BT-474 [8] = test: normalised viability (% of control), CellTiter-Blue; higher = more viable cells (about 100 = DMSO control)
Outline: (§2)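 After 72 h on compound-loaded 384-well plates, breast cancer cell lines received 2.5 µl CellTiter-Blue reagent for 2 h at 37 °C. Fluorescence at 560/590 nm was scaled per plate so that vehicle was 100 and a positive kill control was 0. The value stands for normalised viability at a single listed concentration of the series.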

CAL-148 [9] = test: as above
Outline: as §2

MDA-MB-436 = test: as above
Outline: as §2

Hs578T [10] = test: as above
Outline: as §2

BT-549 = test: as above
Outline: as §2

MDA-MB-453 = test: as above
Outline: as §2

CAL-51 [11] = test: as above
Outline: as §2

HDQ-P1 = test: as above
Outline: as §2

MDA-MB-231 = test: as above
Outline: as §2

MDA-MB-468 = test: as above
Outline: as §2

MFM-223 [12] = test: as above
Outline: as §2

DU-4475 = test: as above
Outline: as §2

CAL-85-1 [13] = test: as above
Outline: as §2

CAL-120 [14] = test: as above
Outline: as §2

CC(=O)O[C@H]1C(=O)[C@@]2(C)[C@H]([C@H](OC(=O)c3ccccc3)[C@]3(O)C[C@H](OC(=O)[C@H](O)[C@@H](NC(=O)c4ccccc4)c4ccccc4)C(C)=C1C3(C)C)[C@]1(OC(C)=O)CO[C@@H]1C[C@@H]2O [Paclitaxel]
Conditions	drug sensitivity score
BT-474 [1]	17.2
CAL-51 [4]	18.9
CAL-85-1 [6]	22.8
CAL-120 [7]	13.2
CAL-148 [2]	18.3
HCC1143	20.9
HCC1937	10.5
Hs578T [3]	23.7
MCF-10A	19.8
MFM-223 [5]	16.5

normalised viability [%]
Conditions	0.3 nM	1 nM	3 nM	10 nM	100 nM	1000 nM
BT-474 [8]	–	106	–	–	25.2	27.7
BT-549	–	83.7	–	–	21.1	20.4
CAL-51 [11]	95.1	–	82.9	57.9	–	–
CAL-85-1 [13]	99.5	–	76.9	62.2	–	–
CAL-120 [14]	–	89.7	–	–	23.6	22.7
CAL-148 [9]	106	–	72.6	51.2	–	–
DU-4475	108	–	95.5	64.8	–	–
HDQ-P1	88.2	–	55.6	46.1	–	–
Hs578T [10]	–	110	–	–	16.4	11.1
MDA-MB-231	–	79.2	–	–	19.9	22.1
MDA-MB-436	–	100	–	–	50.5	42.2
MDA-MB-453	87.7	–	63.2	43.5	–	–
MDA-MB-468	–	93.5	–	–	47.2	49.4
MFM-223 [12]	–	98.2	–	–	45.1	51.7

CC(C)(C)c1cc(NC(=O)Nc2ccc(-c3cn4c(n3)sc3cc(OCCN5CCOCC5)ccc34)cc2)no1 [Quizartinib]
Conditions	drug sensitivity score
BT-474 [1]	0
CAL-51 [4]	0
CAL-85-1 [6]	0
CAL-120 [7]	0
CAL-148 [2]	0
HCC1143	0
HCC1937	0
Hs578T [3]	0
MCF-10A	0
MFM-223 [5]	0

normalised viability [%]
Conditions	0.3 nM	1 nM	3 nM	10 nM	100 nM	1000 nM
BT-474 [8]	–	95.2	–	–	104	96.6
BT-549	–	89.4	–	–	95.1	44
CAL-51 [11]	115	–	106	110	–	–
CAL-85-1 [13]	96.9	–	97.8	105	–	–
CAL-120 [14]	–	93.8	–	–	96.6	96.6
CAL-148 [9]	98.1	–	102	96.2	–	–
DU-4475	95.8	–	98.6	93.3	–	–
HDQ-P1	94.2	–	103	98.8	–	–
Hs578T [10]	–	67.6	–	–	119	93.2
MDA-MB-231	–	104	–	–	118	89.7
MDA-MB-436	–	104	–	–	45.7	87.6
MDA-MB-453	118	–	110	105	–	–
MDA-MB-468	–	108	–	–	108	86.1
MFM-223 [12]	–	86	–	–	86.4	83.8

O=C(c1ccc(OCCN2CCCCC2)cc1)c1c(-c2ccc(O)cc2)sc2cc(O)ccc12 [Raloxifene]
Conditions	drug sensitivity score
BT-474 [1]	0.666
CAL-51 [4]	0
CAL-85-1 [6]	1.62
CAL-120 [7]	0
CAL-148 [2]	0
HCC1143	0
HCC1937	0
Hs578T [3]	0
MCF-10A	0
MFM-223 [5]	1.56

normalised viability [%]
Conditions	3 nM	10 nM	30 nM	100 nM	1000 nM	10000 nM
BT-474 [8]	–	100	–	–	103	113
BT-549	–	77.5	–	–	101	56.8
CAL-51 [11]	102	–	99.7	93.7	–	–
CAL-85-1 [13]	100	–	94.5	98	–	–
CAL-120 [14]	–	99.6	–	–	98.2	91.8
CAL-148 [9]	95.2	–	98.6	93.8	–	–
DU-4475	105	–	108	104	–	–
HDQ-P1	90.2	–	97.5	107	–	–
Hs578T [10]	–	112	–	–	102	92.8
MDA-MB-231	–	85.3	–	–	89.3	102
MDA-MB-436	–	104	–	–	86.3	76.2
MDA-MB-453	106	–	97.5	92.4	–	–
MDA-MB-468	–	98.6	–	–	106	78.2
MFM-223 [12]	–	99.8	–	–	86.2	80.6

Cn1c(=O)c(F)c(Nc2ccc(I)cc2F)c2c(=O)n(C[C@@H](O)CO)cnc21 [TAK-733]
Conditions	drug sensitivity score
BT-474 [1]	6.85
CAL-51 [4]	8.36
CAL-85-1 [6]	6.4
CAL-120 [7]	4.39
CAL-148 [2]	0
HCC1143	0
HCC1937	3
Hs578T [3]	0
MCF-10A	18.5
MFM-223 [5]	0.644

normalised viability [%]
Conditions	0.3 nM	1 nM	3 nM	10 nM	100 nM	1000 nM
BT-474 [8]	–	123	–	–	121	131
BT-549	–	92	–	–	81.8	103
CAL-51 [11]	107	–	88.7	90.1	–	–
CAL-85-1 [13]	93.5	–	97.8	96.1	–	–
CAL-120 [14]	–	92.4	–	–	74.7	56.3
CAL-148 [9]	95	–	99.5	99.5	–	–
DU-4475	84.7	–	56.7	15.3	–	–
HDQ-P1	113	–	118	91.6	–	–
Hs578T [10]	–	108	–	–	88.3	77.5
MDA-MB-231	–	89.2	–	–	36.1	33.8
MDA-MB-436	–	112	–	–	84.1	88.9
MDA-MB-453	114	–	104	115	–	–
MDA-MB-468	–	99.4	–	–	84.6	95
MFM-223 [12]	–	90.4	–	–	79.8	64.5

CCS(=O)(=O)c1cccc(-c2cc(C(=O)NC3CCN(C)CC3)c(C)c3[nH]c4ncc(C)cc4c23)c1 [TAK-901]
Conditions	drug sensitivity score
BT-474 [1]	6.57
CAL-51 [4]	0
CAL-85-1 [6]	0
CAL-120 [7]	4.67
CAL-148 [2]	0
HCC1143	4.84
HCC1937	0
Hs578T [3]	1.14
MCF-10A	7.18
MFM-223 [5]	5.76

normalised viability [%]
Conditions	0.3 nM	1 nM	3 nM	10 nM	100 nM	1000 nM
BT-474 [8]	–	131	–	–	107	78.6
BT-549	–	94.6	–	–	71.2	20.1
CAL-51 [11]	98	–	92.8	92.1	–	–
CAL-85-1 [13]	89.9	–	86.3	91.2	–	–
CAL-120 [14]	–	84.4	–	–	50.5	13.2
CAL-148 [9]	90.1	–	95.3	101	–	–
DU-4475	94.7	–	88.1	101	–	–
HDQ-P1	111	–	109	113	–	–
Hs578T [10]	–	124	–	–	78	40.5
MDA-MB-231	–	99.4	–	–	64.9	20.6
MDA-MB-436	–	116	–	–	96.1	70.6
MDA-MB-453	102	–	111	83.5	–	–
MDA-MB-468	–	112	–	–	33.1	63.6
MFM-223 [12]	–	96	–	–	55	34

CCCC(CCC)C(=O)O [Valproic acid]
Conditions	drug sensitivity score
BT-474 [1]	0
CAL-51 [4]	1.6
CAL-85-1 [6]	0
CAL-120 [7]	0
CAL-148 [2]	0
HCC1143	0
HCC1937	0
Hs578T [3]	0
MCF-10A	0
MFM-223 [5]	0

normalised viability [%]
Conditions	3 nM	10 nM	30 nM	100 nM	1000 nM	10000 nM
BT-474 [8]	–	113	–	–	124	121
BT-549	–	78.7	–	–	93.1	86.2
CAL-51 [11]	104	–	95.1	96.5	–	–
CAL-85-1 [13]	86.4	–	84.7	96.6	–	–
CAL-120 [14]	–	104	–	–	104	93.9
CAL-148 [9]	99.9	–	97.9	109	–	–
DU-4475	88.6	–	81.7	76.3	–	–
HDQ-P1	124	–	116	122	–	–
Hs578T [10]	–	110	–	–	140	127
MDA-MB-231	–	109	–	–	101	116
MDA-MB-436	–	96.6	–	–	89	132
MDA-MB-453	112	–	102	109	–	–
MDA-MB-468	–	105	–	–	117	121
MFM-223 [12]	–	103	–	–	87.2	97.3

— the supplement of paper PMC4862054
